The results in this text go back to publication PMC8805583, “Discovery of Herbacetin as a Novel SGK1 Inhibitor to Alleviate Myocardial Hypertrophy” (Advanced Science, 2021).

Assay in all cases: KinaseProfiler Assay, AGC kinase panel
Assay type in all cases: biochemical

In assay [1] the target is T1, cGMP-dependent type II protein kinase (PRKG2) (Homo sapiens, UniProt Q13237).
T1 construct: purchased Eurofins Discovery (KinaseProfiler Service)
T1 sequence (Q13237 1-762): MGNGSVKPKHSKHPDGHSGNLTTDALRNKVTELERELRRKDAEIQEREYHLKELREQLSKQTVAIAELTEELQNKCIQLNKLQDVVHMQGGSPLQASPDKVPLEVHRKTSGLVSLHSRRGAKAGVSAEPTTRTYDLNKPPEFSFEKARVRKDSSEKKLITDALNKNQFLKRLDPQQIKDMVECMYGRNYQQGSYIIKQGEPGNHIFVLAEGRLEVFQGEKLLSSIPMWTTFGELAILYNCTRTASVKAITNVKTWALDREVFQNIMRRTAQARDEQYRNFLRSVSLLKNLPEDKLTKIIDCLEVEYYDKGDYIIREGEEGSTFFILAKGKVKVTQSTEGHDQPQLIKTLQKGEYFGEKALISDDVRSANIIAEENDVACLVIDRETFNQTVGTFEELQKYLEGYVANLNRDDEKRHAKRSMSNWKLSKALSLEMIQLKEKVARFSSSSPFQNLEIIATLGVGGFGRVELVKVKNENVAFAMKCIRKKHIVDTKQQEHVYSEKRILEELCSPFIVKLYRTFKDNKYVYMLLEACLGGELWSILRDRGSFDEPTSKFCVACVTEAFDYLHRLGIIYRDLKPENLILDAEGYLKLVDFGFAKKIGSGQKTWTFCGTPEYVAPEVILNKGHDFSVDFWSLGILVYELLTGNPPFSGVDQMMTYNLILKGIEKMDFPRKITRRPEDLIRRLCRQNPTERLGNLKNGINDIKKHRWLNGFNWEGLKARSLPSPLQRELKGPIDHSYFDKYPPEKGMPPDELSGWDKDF
The following applies: HBT 10 µmol; normalized by positive inhibitors. An excerpt: (§1) 20 structurally related flavonoids of HBT were collected, which differ in the number and position of —OH groups, and examined for their effects on SGK1 activity. Based on the docking prediction, the —OH group at the C‐4’ position of HBT was required for the interaction with the key SGK1 residue D177. Therefore, the 20 flavonoids were divided into two classes according to the presence or absence of an —OH group at C‐4’ (Figure 4B). At both tested concentrations, flavonoids with an —OH group at C‐4’ (class A) inhibited SGK1 more than those without an —OH group at C‐4’ (class B) (Figure 4C). The IC50 of each compound is listed in Figure 4D; and Figure S6 (Supporting Information). […] Conversely, the absence of an ‐OH group at C‐8 led to a greater than 10‐fold reduction in flavonoid SGK1 inhibitory activity, as shown by the performance of A1 or A4. […] The inhibitory activity of HBT (10 µmol) against 28 human AGC kinases was tested by KinaseProfiler Assay (Eurofins Discovery). The percentage of HBT's inhibitory activity against each kinase was normalized by the respective positive inhibitors of AGC kinases.
(§2) The initial crystal structures of SGK1 (PDB entry: 3HDN, 3HDM, and 2R5T) were obtained from the Protein Data Bank (PDB). The prepared inhibitors were then docked by Glide with the extra precision (XP) scoring mode to estimate the binding affinity for each protein–ligand complex. The detailed process of docking has been described previously.^[ [46] ^] HEK293T cells were transfected with SGK1 mutant plasmids. After 24 h, cells were lysed and immunoprecipitated with anti‐FLAG antibody and beads. Immune complexes were washed with kinase buffer and incubated in kinase buffer with substrate peptide for 1 h at 30 ℃ followed by LC/MS measurement as described above. KINOMEscan Profiling Service and KinaseProfiler Service Assay were provided by Eurofins Discovery.

The target in a further assay is T2, SGK2 (Homo sapiens, UniProt Q9HBY8).
T2 construct: purchased Eurofins Discovery (KinaseProfiler Service)
T2 sequence (Q9HBY8 1-367): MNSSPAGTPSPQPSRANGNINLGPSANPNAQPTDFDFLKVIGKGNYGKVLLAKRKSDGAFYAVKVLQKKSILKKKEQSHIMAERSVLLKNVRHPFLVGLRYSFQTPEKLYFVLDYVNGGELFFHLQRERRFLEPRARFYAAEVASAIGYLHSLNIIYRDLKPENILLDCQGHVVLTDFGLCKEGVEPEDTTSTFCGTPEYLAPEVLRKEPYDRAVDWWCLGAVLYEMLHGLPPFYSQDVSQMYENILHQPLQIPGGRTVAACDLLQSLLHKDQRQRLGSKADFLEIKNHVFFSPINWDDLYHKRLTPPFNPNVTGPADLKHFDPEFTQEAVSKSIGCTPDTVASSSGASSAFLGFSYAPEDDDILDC
The following applies: HBT 10 µmol; normalized by positive inhibitors.
Source text: as §1, §2

In assay [2] the target is T3, Rho-associated protein kinas-1 (ROCK-I) (Homo sapiens, UniProt Q13464).
T3 construct: purchased Eurofins Discovery (KinaseProfiler Service)
The conditions noted are these: HBT 10 µmol.
Source text: as §1, §2

In assay [3] the target is T4, catalytic subunit C-beta of PKA (PKAcβ) (Homo sapiens, UniProt P22694).
T4 construct: purchased Eurofins Discovery (KinaseProfiler Service)
The following applies: HBT 10 µmol.
Source text: as §1, §2

T3 sequence (Q13464 whole entry): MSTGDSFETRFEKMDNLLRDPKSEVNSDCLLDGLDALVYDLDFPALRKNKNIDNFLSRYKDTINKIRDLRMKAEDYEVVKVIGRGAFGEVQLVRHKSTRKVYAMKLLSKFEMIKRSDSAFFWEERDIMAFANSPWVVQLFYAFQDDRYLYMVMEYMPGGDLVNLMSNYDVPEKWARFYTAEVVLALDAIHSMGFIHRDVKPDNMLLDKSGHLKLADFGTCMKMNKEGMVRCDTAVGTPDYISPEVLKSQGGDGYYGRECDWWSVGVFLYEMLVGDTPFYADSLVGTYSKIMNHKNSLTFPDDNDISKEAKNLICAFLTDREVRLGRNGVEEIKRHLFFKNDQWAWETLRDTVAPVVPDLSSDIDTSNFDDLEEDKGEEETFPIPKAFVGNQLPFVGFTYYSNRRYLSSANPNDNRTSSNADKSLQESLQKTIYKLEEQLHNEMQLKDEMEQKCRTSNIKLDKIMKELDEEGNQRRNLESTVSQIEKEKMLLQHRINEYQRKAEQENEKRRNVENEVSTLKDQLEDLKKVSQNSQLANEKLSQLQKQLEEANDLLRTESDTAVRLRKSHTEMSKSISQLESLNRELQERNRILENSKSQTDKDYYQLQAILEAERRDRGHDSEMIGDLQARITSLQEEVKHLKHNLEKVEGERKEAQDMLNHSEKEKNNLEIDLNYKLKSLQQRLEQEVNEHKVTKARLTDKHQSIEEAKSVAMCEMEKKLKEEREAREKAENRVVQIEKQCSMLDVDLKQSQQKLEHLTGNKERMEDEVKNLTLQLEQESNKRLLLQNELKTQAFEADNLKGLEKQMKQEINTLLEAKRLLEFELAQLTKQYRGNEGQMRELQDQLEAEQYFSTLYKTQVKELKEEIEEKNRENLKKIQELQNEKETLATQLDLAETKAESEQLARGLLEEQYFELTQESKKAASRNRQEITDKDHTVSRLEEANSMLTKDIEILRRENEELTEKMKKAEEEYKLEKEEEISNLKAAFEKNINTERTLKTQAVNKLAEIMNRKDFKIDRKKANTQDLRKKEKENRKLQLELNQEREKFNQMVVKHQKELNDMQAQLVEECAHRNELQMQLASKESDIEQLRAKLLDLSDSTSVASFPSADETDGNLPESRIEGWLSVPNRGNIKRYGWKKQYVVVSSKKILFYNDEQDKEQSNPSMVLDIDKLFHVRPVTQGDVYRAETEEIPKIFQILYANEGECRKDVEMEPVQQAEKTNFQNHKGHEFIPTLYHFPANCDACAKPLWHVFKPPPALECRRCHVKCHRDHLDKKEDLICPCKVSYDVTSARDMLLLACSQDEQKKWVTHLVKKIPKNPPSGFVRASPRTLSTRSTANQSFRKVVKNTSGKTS

As to `O=c1c(O)c(-c2ccc(O)cc2)oc2c(O)c(O)cc(O)c12` [HBT, herbacetin], the “inhibitory activity on PRKG2” value in assay [1] is given as 45%. For the same compound, the “inhibitory activity on SGK2” value against SGK2 turned out to be 105%. The “inhibitory effect on ROCK-I” value in assay [2] is given as “high inhibitory effects”. In assay [3], the “inhibitory effect on PKAcβ” value was “high inhibitory effects”.
